Data: patent US12077503B2, “Substituted cyclic amides and their use as herbicides” (FMC CORPORATION, priority 2015, dated 2024)
Read-outs that look alike come from different tables or passages of the source.

Assays:
Assay type in all cases: in vivo
[1] = system: sedge, umbrella (small-flower umbrella sedge, Cyperus difformis); assay: Test B flooded paddy test; details: Cyperus difformis, Flood, 250 g ai/ha
In short: (§1)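 Evaluation by eye, against controls, occurred 13–15 d post-treatment in a greenhouse, using a 0 (no effect) to 100 (complete control) scale. Application was into the paddy water, 3 cm deep over the soil, on 2-leaf plants.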

[2] = system: ducksalad (Heteranthera limosa); assay: Test B flooded paddy test; details: Heteranthera limosa, Flood, 250 g ai/ha
In short: as §1

[3] = system: barnyardgrass (Echinochloa crus-galli); assay: Test B flooded paddy test; details: Echinochloa crus-galli, Flood, 250 g ai/ha
In short: as §1

rice (Oryra sativa) = assay: Test B flooded paddy test; details: Oryza sativa, Flood, 250 g ai/ha
In short: as §1

[4] = system: pigweed (Amaranthus retroflexus); assay: Test A postemergence; details: Amaranthus retroflexus, post-emergence, 240 h; for pest or weed control at 125 g/ha: 125 g ai/ha
In short: (§2)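 Preemergence directed soil spray on seeded pots, or postemergence application to plants 2–10 cm, one- to two-leaf. Solvent mixture non-phytotoxic, with surfactant. Scored ~10 d later, visually, 0–100 vs untreated.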

[5] = system: ryegrass, Italian (Italian ryegrass, Lolium multiflorum); assay: Test A postemergence; details: Lolium multiflorum, post-emergence, 240 h; for pest or weed control at 125 g/ha: 125 g ai/ha
In short: as §2

corn (Zea mays) = assay: Test A postemergence; details: Zea mays, post-emergence, 240 h; for Corn plant response rating (crop injury, 0 = no effect, 100 = complete kill) at 125 g/ha: postemergence, visual injury after approximately 10 d
In short: as §2

[6] = system: wheat (Triticum aestivum); assay: Test A postemergence; details: Triticum aestivum, post-emergence, 240 h; for plant injury at 125 g/ha: 125 g ai/ha
In short: as §2

[7] = system: giant foxtail (Setaria faberii); assay: Test A preemergence; details: Setaria faberi, pre-emergence, 240 h; for pest or weed control at 125 g/ha: 125 g ai/ha; for pest or weed control at 500 g/ha: 500 g ai/ha
In short: as §2

[8] = system: ragweed (common ragweed, Ambrosia elatior); assay: Test A preemergence; details: Ambrosia artemisiifolia, pre-emergence, 240 h; for pest or weed control at 125 g/ha: 125 g ai/ha; for pest or weed control at 500 g/ha: 500 g ai/ha
In short: as §2

[9] = system: pigweed (Amaranthus retroflexus); assay: Test A preemergence; details: Amaranthus retroflexus, pre-emergence, 240 h; for pest or weed control at 125 g/ha: 125 g ai/ha; for pest or weed control at 500 g/ha: 500 g ai/ha
[10] = system: ryegrass, Italian (Italian ryegrass, Lolium multiflorum); assay: Test A preemergence; details: Lolium multiflorum, pre-emergence, 240 h; for pest or weed control at 125 g/ha: 125 g ai/ha; for pest or weed control at 500 g/ha: 500 g ai/ha
In short: as §2

[11] = system: barnyardgrass (Echinochloa crus-galli); assay: Test A preemergence; details: Echinochloa crus-galli, pre-emergence, 240 h; for pest or weed control at 125 g/ha: 125 g ai/ha; for pest or weed control at 500 g/ha: 500 g ai/ha
In short: as §2

Kochia (Kochia scoparia) = assay: Test A preemergence; details: Bassia scoparia, pre-emergence, 240 h; for pest or weed control at 125 g/ha: 125 g ai/ha; for pest or weed control at 500 g/ha: 500 g ai/ha
In short: as §2

[12] = scale of 0 to 100 where 0 is no effect and 100 is complete control, read-out: Sedge, Umbrella plant response rating
[13] = scale of 0 to 100 where 0 is no effect and 100 is complete control, read-out: Ducksalad plant response rating
[14] = scale of 0 to 100 where 0 is no effect and 100 is complete control, read-out: Barnyardgrass plant response rating
[15] = scale of 0 to 100 where 0 is no effect and 100 is complete control, read-out: Rice plant response rating
[16] = postemergence, visual injury after approximately 10 d, 0 to 100 scale (0 no effect, 100 complete control), read-out: Plant response rating, Pigweed
[17] = postemergence, visual injury after approximately 10 d, 0 to 100 scale (0 no effect, 100 complete control), read-out: Plant response rating, Ryegrass, Italian
[18] = 125 g ai/ha, 0 to 100 scale (0 no effect, 100 complete control)
[19] = postemergence, visual injury after approximately 10 d, 0 to 100 scale (0 no effect, 100 complete control), read-out: Plant response rating, Wheat
[20] = preemergence, visual rating after approx. 10 d, 0 to 100 scale where 0 is no effect and 100 is complete control, read-out: Plant response rating, Foxtail, Giant
[21] = Preemergence, visual injury vs untreated controls after approximately 10 d, read-out: Foxtail, Giant plant response rating (0 to 100 scale where 0 is no effect and 100 is complete control)
[22] = preemergence, visual rating after approx. 10 d, 0 to 100 scale where 0 is no effect and 100 is complete control, read-out: Plant response rating, Ragweed
[23] = Preemergence, visual injury vs untreated controls after approximately 10 d, read-out: Ragweed plant response rating (0 to 100 scale where 0 is no effect and 100 is complete control)
[24] = preemergence, visual rating after approx. 10 d, 0 to 100 scale where 0 is no effect and 100 is complete control, read-out: Plant response rating, Pigweed
[25] = Preemergence, visual injury vs untreated controls after approximately 10 d, read-out: Pigweed plant response rating (0 to 100 scale where 0 is no effect and 100 is complete control)
[26] = preemergence, visual rating after approx. 10 d, 0 to 100 scale where 0 is no effect and 100 is complete control, read-out: Plant response rating, Ryegrass, Italian
[27] = Preemergence, visual injury vs untreated controls after approximately 10 d, read-out: Ryegrass, Italian plant response rating (0 to 100 scale where 0 is no effect and 100 is complete control)
[28] = preemergence, visual rating after approx. 10 d, 0 to 100 scale where 0 is no effect and 100 is complete control, read-out: Plant response rating, Barnyardgrass
[29] = Preemergence, visual injury vs untreated controls after approximately 10 d, read-out: Barnyardgrass plant response rating (0 to 100 scale where 0 is no effect and 100 is complete control)
[30] = preemergence, visual rating after approx. 10 d, 0 to 100 scale where 0 is no effect and 100 is complete control, read-out: Plant response rating, Kochia
[31] = Preemergence, visual injury vs untreated controls after approximately 10 d, read-out: Kochia plant response rating (0 to 100 scale where 0 is no effect and 100 is complete control)

SMILES: CN1C[C@H](c2ccc(C#N)cc2)[C@@H](C(=O)Nc2cccc(F)c2F)C1=O (racemic) [Compound 775]
- pest or weed control at 250 g/ha [1, 12]: 65%
- pest or weed control at 250 g/ha [2, 13]: 75%
- pest or weed control at 250 g/ha [3, 14]: 35%
- pest or weed control at 250 g/ha (rice (Oryra sativa); [15]): 0%
- pest or weed control at 125 g/ha [4, 16]: 0%
- pest or weed control at 125 g/ha [5, 17]: 20%
- Corn plant response rating (crop injury, 0 = no effect, 100 = complete kill) at 125 g/ha (corn (Zea mays); [18]): 20%
- plant injury at 125 g/ha [6, 19]: 20%
- pest or weed control at 125 g/ha [7, 20]: 80%
- pest or weed control at 500 g/ha [7, 21]: 100%
- pest or weed control at 125 g/ha [8, 22]: 50%
- pest or weed control at 500 g/ha [8, 23]: 80%
- pest or weed control at 125 g/ha [9, 24]: 30%
- pest or weed control at 500 g/ha [9, 25]: 70%
- pest or weed control at 125 g/ha [10, 26]: 0%
- pest or weed control at 500 g/ha [10, 27]: 0%
- pest or weed control at 125 g/ha [11, 28]: 60%
- pest or weed control at 500 g/ha [11, 29]: 100%
- pest or weed control at 125 g/ha (Kochia (Kochia scoparia); [30]): 30%
- pest or weed control at 500 g/ha (Kochia (Kochia scoparia); [31]): 80%

SMILES: CN1C[C@H](c2cccc(S(C)(=O)=O)c2)[C@@H](C(=O)Nc2cccc(F)c2F)C1=O (racemic) [Compound 777]
- pest or weed control at 250 g/ha [1, 12]: 0%
- pest or weed control at 250 g/ha [2, 13]: 0%
- pest or weed control at 250 g/ha [3, 14]: 30%
- pest or weed control at 250 g/ha (rice (Oryra sativa); [15]): 20%
- pest or weed control at 125 g/ha [4, 16]: 0%
- pest or weed control at 125 g/ha [5, 17]: 0%
- Corn plant response rating (crop injury, 0 = no effect, 100 = complete kill) at 125 g/ha (corn (Zea mays); [18]): 40%
- plant injury at 125 g/ha [6, 19]: 30%
- pest or weed control at 125 g/ha [7, 20]: 80%
- pest or weed control at 500 g/ha [7, 21]: 100%
- pest or weed control at 125 g/ha [8, 22]: 0%
- pest or weed control at 500 g/ha [8, 23]: 0%
- pest or weed control at 125 g/ha [9, 24]: 0%
- pest or weed control at 500 g/ha [9, 25]: 40%
- pest or weed control at 125 g/ha [10, 26]: 40%
- pest or weed control at 500 g/ha [10, 27]: 70%
- pest or weed control at 125 g/ha [11, 28]: 70%
- pest or weed control at 500 g/ha [11, 29]: 100%
- pest or weed control at 125 g/ha (Kochia (Kochia scoparia); [30]): 0%
- pest or weed control at 500 g/ha (Kochia (Kochia scoparia); [31]): 0%

SMILES: CO[C@]1(C(=O)Nc2cccc(F)c2F)C(=O)N(C)C[C@@H]1c1ccc(C(F)(F)F)cc1 (racemic) [Compound 1334]
- pest or weed control at 250 g/ha ([1]; 360 h, visually evaluated after 13 to 15 d, read-out: Plant response rating, Sedge, Umbrella (0 to 100 scale where 0 is no effect and 100 is complete control)): 0%
- pest or weed control at 250 g/ha ([2]; 360 h, visually evaluated after 13 to 15 d, read-out: Plant response rating, Ducksalad (0 to 100 scale where 0 is no effect and 100 is complete control)): 90%
- pest or weed control at 250 g/ha ([3]; 360 h, visually evaluated after 13 to 15 d, read-out: Plant response rating, Barnyardgrass (0 to 100 scale where 0 is no effect and 100 is complete control)): 0%
- pest or weed control at 250 g/ha (rice (Oryra sativa); 360 h, visually evaluated after 13 to 15 d, read-out: Plant response rating, Rice (0 to 100 scale where 0 is no effect and 100 is complete control)): 0%
- pest or weed control at 125 g/ha ([4]; Postemergence, visual rating about 10 d after treatment, read-out: Pigweed plant response rating (0 to 100 scale)): 30%
- pest or weed control at 500 g/ha ([4]; Postemergence, 500 g ai/ha, visual injury, 0 to 100 scale (0 no effect, 100 complete control), approx. 10 d, read-out: Plant response rating, Pigweed): 40%
- pest or weed control at 125 g/ha ([5]; Postemergence, visual rating about 10 d after treatment, read-out: Ryegrass, Italian plant response rating (0 to 100 scale)): 0%
- pest or weed control at 500 g/ha ([5]; Postemergence, 500 g ai/ha, visual injury, 0 to 100 scale (0 no effect, 100 complete control), approx. 10 d, read-out: Plant response rating, Ryegrass, Italian): 20%
- plant injury at 125 g/ha (corn (Zea mays); 125 g ai/ha, Postemergence, visual rating about 10 d after treatment, read-out: Corn plant response rating (0 to 100 scale)): 0%
- Corn plant response rating (crop injury, 0 = no effect, 100 = complete kill) at 500 g/ha (corn (Zea mays); Postemergence, 500 g ai/ha, visual injury, 0 to 100 scale (0 no effect, 100 complete control), approx. 10 d): 30%
- plant injury at 125 g/ha ([6]; Postemergence, visual rating about 10 d after treatment, read-out: Wheat plant response rating (0 to 100 scale)): 0%
- plant injury at 500 g/ha ([6]; Postemergence, 500 g ai/ha, visual injury, 0 to 100 scale (0 no effect, 100 complete control), approx. 10 d, read-out: Plant response rating, Wheat): 0%
- pest or weed control at 500 g/ha ([7]; preemergence, 0 to 100 scale (0 no effect, 100 complete control), read-out: Plant response rating, Foxtail, Giant): 80%
- pest or weed control at 125 g/ha ([7]; Preemergence, 0 to 100 scale (0 no effect, 100 complete control), read-out: Plant response rating, Foxtail, Giant): 40%
- pest or weed control at 500 g/ha ([8]; preemergence, 0 to 100 scale (0 no effect, 100 complete control), read-out: Plant response rating, Ragweed): 30%
- pest or weed control at 125 g/ha ([8]; Preemergence, 0 to 100 scale (0 no effect, 100 complete control), read-out: Plant response rating, Ragweed): 0%
- pest or weed control at 500 g/ha ([9]; preemergence, 0 to 100 scale (0 no effect, 100 complete control), read-out: Plant response rating, Pigweed): 30%
- pest or weed control at 125 g/ha ([9]; Preemergence, 0 to 100 scale (0 no effect, 100 complete control), read-out: Plant response rating, Pigweed): 20%
- pest or weed control at 500 g/ha ([10]; preemergence, 0 to 100 scale (0 no effect, 100 complete control), read-out: Plant response rating, Ryegrass, Italian): 20%
- pest or weed control at 125 g/ha ([10]; Preemergence, 0 to 100 scale (0 no effect, 100 complete control), read-out: Plant response rating, Ryegrass, Italian): 0%
- pest or weed control at 500 g/ha ([11]; preemergence, 0 to 100 scale (0 no effect, 100 complete control), read-out: Plant response rating, Barnyardgrass): 80%
- pest or weed control at 125 g/ha ([11]; Preemergence, 0 to 100 scale (0 no effect, 100 complete control), read-out: Plant response rating, Barnyardgrass): 20%
- pest or weed control at 500 g/ha (Kochia (Kochia scoparia); preemergence, 0 to 100 scale (0 no effect, 100 complete control), read-out: Plant response rating, Kochia): 20%
- pest or weed control at 125 g/ha (Kochia (Kochia scoparia); Preemergence, 0 to 100 scale (0 no effect, 100 complete control), read-out: Plant response rating, Kochia): 0%
